We go through 9 compounds from patent publication US6180625A, “Heterocyclic compounds regulating clotting” (Novo Nordisk A/S, priority 1998, dated 2001).

The target of one series is T1, fVIIa/TF (Homo sapiens, UniProt P08709).
T1 construct: Single-chain fVII may be converted to two-chain fVIIa by factor Xa, factor XIIa, factor IXa, fVIIa or thrombin in vitro
In words: fX activation assay. Type of series: biochemical. The following applies: 100 pM fVIIa, 5 pM TF, 175 nM fX, 5-min incubation, S-2765 substrate, read-out: IC50 TF/FVII/FX. The procedure:
Inhibitory Compounds are Identified in a fX Activation Assay:
The compounds are dissolved in DMSO and mixed with a solution of fVIIa in Ca^2 +-containing buffer (1+5). 30 μl of this mixture was then mixed with 45 μl TF (relipidated in PC/PS vesicles) and 25 μl of a solution containing fX, all in Ca^2 +-containing buffer. This gives final concentrations of 100 pM fVIIa, 5 pM TF, 175 nM fX and various concentrations of the compounds. After a 5-min incubation, the fVIIa/TF-catalyzed activation of fX is terminated by the addition of 50 μl buffer containing enough EDTA to give an excess over the Ca^2+ ions present. 50 μl of a 2-mM solution of S-2765 (fXa substrate) is then added and the fXa formed is allowed to hydrolyze the substrate for 10 minutes during which the absorbance at 405 nm is continuously monitored in a SPECTRAmax™ 340 plate reader. The slope of the absorption curve is compared to that of a control where DMSO alone was added to fVIIa/TF/fX.
IC50 TF/FVII/FX: The IC50 value in μM found from the FX activation assay

The conditions of series [1]: blood; cited from earlier work.

T1 sequence (P08709 213-466 limits assumed): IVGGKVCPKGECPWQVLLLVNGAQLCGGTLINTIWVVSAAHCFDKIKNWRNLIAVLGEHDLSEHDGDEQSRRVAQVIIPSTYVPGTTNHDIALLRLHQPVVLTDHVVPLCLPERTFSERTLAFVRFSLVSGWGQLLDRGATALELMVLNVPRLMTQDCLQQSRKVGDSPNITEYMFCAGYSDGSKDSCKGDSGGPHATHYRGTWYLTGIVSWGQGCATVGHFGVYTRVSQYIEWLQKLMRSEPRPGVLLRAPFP
T1 sequence (P08709 61-212 limits assumed): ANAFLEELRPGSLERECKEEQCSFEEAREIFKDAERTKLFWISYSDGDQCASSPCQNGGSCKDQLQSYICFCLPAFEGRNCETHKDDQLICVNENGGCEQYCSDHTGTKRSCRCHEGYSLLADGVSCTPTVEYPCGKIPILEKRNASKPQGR
T1 sequence (P13726 33-295 partner): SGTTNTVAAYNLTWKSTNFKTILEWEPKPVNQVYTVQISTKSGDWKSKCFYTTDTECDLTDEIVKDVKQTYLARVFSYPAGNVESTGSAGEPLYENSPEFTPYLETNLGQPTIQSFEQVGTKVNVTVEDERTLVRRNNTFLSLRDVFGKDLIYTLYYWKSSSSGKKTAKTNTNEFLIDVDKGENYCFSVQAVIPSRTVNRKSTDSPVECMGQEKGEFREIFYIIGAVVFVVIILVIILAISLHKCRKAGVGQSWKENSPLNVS

For the compound `Cc1cccc(-c2nc3ccccc3c(=O)o2)c1` [Example 13, 2-m-Tolyl-4H-3,1-benzoxazin-4-one], the IC50 at fVIIa/TF was determined as 600 nM. The same measure, in the same setting: under `Cc1ccc2nc(-c3c(F)cccc3Cl)oc(=O)c2c1` [Example 41, 2-(2-Chloro-6-fluorophenyl)-6-methyl-4H-3,1-benzoxazin-4-one] stands 900 nM; under `COc1ccc(Br)c(-c2nc3ccccc3c(=O)o2)c1` [Example 43, 2-(2-Bromo-5-methoxy-phenyl)-4H-3,1-benzoxazin-4-one], 1100 nM.

Regarding `COC(=O)c1cccc2nc(-c3ccccc3F)oc(=O)c12` [Example 75, 2-(2-Fluoro-phenyl)-4-oxo-4H-benzo[d][1,3]oxazine-5-carboxylic acid methyl ester], on fVIIa/TF, the IC50 was found to be 5600 nM.

Regarding `O=c1oc(-c2ccccc2[N+](=O)[O-])nc2cccc([N+](=O)[O-])c12` [Example 83, 5-Nitro-2-(2-nitro-phenyl)-benzo[d][1,3]oxazin-4-one], the IC50 at fVIIa/TF is 320 nM. Still for that read-out and setting: the same measure for `O=c1oc(-c2cccnc2Cl)nc2cccc([N+](=O)[O-])c12` [Example 87, 2-(2-Chloro-pyridin-3-yl)-5-nitro-benzo[d][1,3]oxazin-4-one]: 2800 nM. On the same count and under the same terms, the same measure for `O=c1oc(-c2ccccc2F)nc2ccc(C(F)(F)F)cc12` [Example 95, 2-(2-Fluoro-phenyl)-6-trifluoromethyl-benzo[d][1,3]oxazin-4-one]: 3100 nM; for `O=c1oc(-c2c(F)cccc2F)nc2cccc(Cl)c12` [Example 116, 5-Chloro-2-(2,6-difluoro-phenyl)-benzo[d][1,3]oxazin-4-one]: 170 nM.

For the compound heparin, the half-life entry in series [1] is “approximately 80 minutes”.
